Results on 14 molecules are retold here after patent US20240067639A1, “SMALL MOLECULES THAT TARGET THE RNA THAT CAUSES ALS” (EXPANSION THERAPEUTICS, INC., priority 2020, published 2024).

In general, Ki refers to the dissociation constant of the complex between target and ligand, obtained from inhibition or displacement. Read a high Ki as lower affinity. Broadly, the IC25 is the point of the concentration-response curve where the effect stands at 25%.

Test [1] addresses biotinylated r(G4C2)8 RNA and hnRNP H1-His6. Briefly: TR-FRET hnRNP H binding assay. The procedure:
TR-FRET hnRNP H Binding Assay. The TR-FRET assays were performed as previously described (Disney et al., 2012) except the final concentrations of biotinylated r(G4C2)8 (SEQ ID NO: 2) RNA and hnRNP H1-His6 were 80 nM and 75 nM, respectively. The RNA was folded by heating to 95° C. for 5 min in 1× Folding Buffer followed by slowly cooling to room temperature. The buffer was adjusted to 1×TR-FRET Assay Buffer followed by addition of compound. The mixture was incubated for 15 min at room temperature and then hnRNP H1-His6 was added. After an additional 15 min incubation, streptavidin-XL665 (HTRF, Cisbio Bioassays) and anti-His6-Tb (HTRF, Cisbio Bioassays) were added to a final concentration of 40 nM and 0.44 ng/μL, respectively. After incubating for 1 h, TR-FRET was measured as previously described. The IC50s were either calculated by fitting the equation (1) in Graphpad Prism.
For orientation: In TR-FRET formats the signal depends on donor and acceptor labels being close together.

In test [2] the test system is RAN translation of (G4C2)66-No ATG-GFP in HEK293T cells. In words: Cell-based assay of RAN translation inhibition (GFP/mCherry reporter). As to conditions: Homo sapiens, HEK-293T, 24 h, read-out: RANT IC25.
Setting [3] is: Table F, HEK293T, 24 h treatment.
[4] abbreviates: Table D, HEK293T, 24 h treatment.

Like-named read-outs stand apart in the source and are kept apart here. A value given as a limit tells only on which side of the number the result lay.

Regarding `Cc1c2ccncc2cc2c3cc(N4CCNC5(CC5)C4)ccc3n(C)c12` [Compound 246, 5,6-dimethyl-9-(4,7-diazaspiro[2.5]octan-7-yl)-6H-pyrido[4,3-b]carbazole], affinity in test [1] (Table F) was put at a Ki of 1.6 µM. Further, the IC25 in test [2] (setting [3]) is greater than 5 µM.

With `Cc1c2ccncc2cc2c3cc(OCC4=NCCN4)cc(F)c3n(C)c12` [Compound 254, 9-((4,5-dihydro-1H-imidazol-2-yl)methoxy)-7-fluoro-5,6-dimethyl-6H-pyrido[4,3-b]carbazole], the affinity in test [1] (Table F) corresponds to a Ki of 1.8 µM. For the same molecule, the IC25 in test [2] (setting [3]) was greater than 5 µM.

In test [1] (Table D), `Cc1c2ccncc2cc2c3cc(OCC4=NCCN4)ccc3n(C(C)C)c12` [Example 84, 9-(4,5-dihydro-1H-imidazol-2-ylmethoxy)-6-isopropyl-5-methyl-pyrido[4,3-b]carbazole] registered a Ki of 13 µM. The 25% effect concentration (IC25) in test [2] (setting [4]) is greater than 5 µM.

On to `Cc1c2ccncc2cc2c3cc(C(=O)NCCN4CCCCC4)ccc3n(C)c12` [Example 77, 5,6-dimethyl-N-(2-(piperidin-1-yl)ethyl)-6H-pyrido[4,3-b]carbazole-9-carboxamide], for which the Ki in test [1] (Table D) came to 1.2 µM. The IC25 in test [2] (setting [4]) is 1.7 µM.

In test [1] (Table F), `Cc1c2ccnc(C3CCCO3)c2cc2c3cc(C(=O)NCCN(C)C)ccc3n(C)c12` (stereo not shown) [Compound 216, N-(2-(dimethylamino)ethyl)-5,6-dimethyl-1-(tetrahydrofuran-2-yl)-6H-pyrido[4,3-b]carbazole-9-carboxamide] gave a Ki of 6.9 µM. The IC25 in test [2] (setting [3]) turned out to be 1.7 µM.

`CC(C)n1c2ccc(OCC3=NCCN3)cc2c2cc3cnccc3cc21` [Compound 256, 9-(4,5-dihydro-1H-imidazol-2-ylmethoxy)-6-isopropyl-pyrido[4,3-b]carbazole] returned a Ki in test [1] (Table F) of 42 µM. Besides, the IC25 in test [2] (setting [3]) was greater than 5 µM.

Molecule `Cc1c2ccncc2cc2c3cc(C(=O)NCCN4CCCCC4)ccc3n(C)c12` [Compound 213, 5,6-dimethyl-N-(2-(piperidin-1-yl)ethyl)-6H-pyrido[4,3-b]carbazole-9-carboxamide] came in with a Ki in test [1] (Table F) of 1.2 µM. Besides, in test [2] (setting [3]), the 25% effect concentration (IC25) turned out to be 1.7 µM.

In test [1] (Table D), `Cc1c2ccncc2cc2c3cc(OCCCN4CCCC4)ccc3n(C)c12` [Compound 9, 5,6-dimethyl-9-(3-(pyrrolidin-1-yl)propoxy)-6H-pyrido[4,3-b]carbazole] registered a Ki of 10 µM. Also, in test [2] (setting [4]), the IC25 was 0.27 µM.

With `Cc1c2ccncc2cc2c3cc(OCCN(C)C)ccc3n(C)c12` [Compound 5], the Ki in test [1] (Table D) is 20 µM. Besides, the 25% effect concentration (IC25) in test [2] (setting [4]) came out at 0.5 µM.

The molecule `Cc1c2ccncc2cc2c3cc(OC[C@@H]4CCCN4C)ccc3n(C)c12` [Example 37, (S)-5,6-dimethyl-9-((1-methylpyrrolidin-2-yl)methoxy)-6H-pyrido[4,3-b]carbazole] showed a Ki in test [1] (Table D) of 0.84 µM. The IC25 in test [2] (setting [4]) was determined as 2.3 µM.

`Cc1c2ccncc2cc2c3cc(OCCN4CCCCC4)ccc3n(C)c12` [Example 31, 5,6-dimethyl-9-(2-(piperidin-1-yl)ethoxy)-6H-pyrido[4,3-b]carbazole] yielded a Ki in test [1] (Table D) of 4.5 µM. The IC25 in test [2] stood at 2.8 µM.

`Cc1c2ccncc2cc2c3cc(OCCN4CCC(C)CC4)ccc3n(C)c12` [Compound 227, 5,6-dimethyl-9-(2-(4-methylpiperidin-1-yl)ethoxy)-6H-pyrido[4,3-b]carbazole] had a Ki in test [1] (Table F) of 1.4 µM. In addition, the IC25 in test [2] is greater than 5 µM.

In test [1] (Table D), `Cc1c2ccncc2cc2c3cc(C(=O)NCCN(C)C)ccc3n(C)c12` [Example 68, N-(2-(dimethylamino)ethyl)-5,6-dimethyl-6H-pyrido[4,3-b]carbazole-9-carboxamide] displayed an inhibition constant (Ki) of 4 µM. Further, the IC25 in test [2] (setting [4]) came out at 0.72 µM.

For `Cc1c2ccncc2cc2c3c(OCCN4CCOCC4)cccc3n(C)c12` [Example 54, 4-(2-((5,6-dimethyl-6H-pyrido[4,3-b]carbazol-10-yl)oxy)ethyl)morpholine], in test [1] (Table D), the affinity, expressed as Ki, was 13 µM. Also, the IC25 in test [2] (setting [4]) amounted to 1.3 µM.
